# Results: article PMC11500415, “Chemical inhibition of stomatal differentiation by perturbation of the master-regulatory bHLH heterodimer via an ACT-Like domain” (Nature Communications, 2024)
# Where “and” joins values, the source holds several entries; their conditions need not be identical. Identical values can stand only once.
# Tests used:
# [1] = test system: mute-2 seedlings expressing MUTEpro::MUTE-GFP, MUTEpro::MUTEE162A_E163A-GFP or MUTEpro::MUTER133A_R134A-GFP; test: Stomidazolone resistance of mute-2 seedlings expressing engineered MUTE-GFP; assay type: in vivo, Arabidopsis
# Method: Arabidopsis accession Columbia (Col-0) was used as wild-type. […] Their genotype and transcript reduction were confirmed. The presence of transgenes/mutant alleles were confirmed by genotyping. For liquid culture with Stomidazolone (AYSJ929, compound 3), the analogs (AYSJ1059 (compound 5) and AYSJ1061 (compound 6)), degraded compound lzx103 (compound 4), and SIM3* (compound 7), all compounds were dissolved in dimethyl sulfoxide (DMSO, Molecular biology grade, Fujifilm Wako, Japan 046-21981), Col-0 seeds were sown in 96-well plates (TL5003; True Line) containing 95 μL of 1/2 MS media containing 0.5% sucrose with rotary shaking at 140 rpm under continuous light at 22 °C. Five μL of compounds were dissolved in DMSO at 10 mM and diluted with liquid 1/2 MS media to 1 mM and added on 1-day-old seedlings (final concentration, 50 μM). Seedlings were incubated for 8 days, and at day 9 seedling abaxial cotyledons were observed through confocal microscopy. For liquid culture of scrm-D_S343 and scrm-D_S423, 1/2 MS liquid media without sucrose was used. For the solid culture, 0, 20, 50 or 100 μM Stomidazolone were solidified with low-melting agarose (5805S, PrimeGelTM Agarose LMT 1-20 K, TAKARA Bio). Briefly, 1/2 MS salt, 0.5% sucrose, and 0.8% low melting agarose were mixed in water and autoclaved. After cooling the medium at around 30 °C, Stomidazolone (500x, dissolved in DMSO) was added and poured into 90 mm petri dishes (Asnol Petri Dish JP φ90 x 15 mm, 3-1491-01, AS ONE). Col-0 seeds were sown on Stomidazolone-containing 1/2 MS agarose media and grown under continuous light for 9 days.
# The following constructs for transgenic plants were generated in this study: MUTEpro::MUTE-GFP (pAH11), MUTEpro::MUTEE162AE163A-GFP (pHS133), MUTEpro::MUTER133AR134A-GFP (pHS134). The original MUTEpro::MUTE-GFP construct (pLJP155) was generated via a different cloning strategy with different antibiotics selection. We therefore re-generated the wild-type Three-way Gateway version of MUTEpro::MUTE-GFP (pAH11) as a control. MUTE genomic coding construct without stop codon (pAR205) and MUTE promoter construct (pAR202) were subjected to the Gateway reaction with R4pGWB504[56]. The wild-type MUTE-GFP lines with the identical R4pGWB504 backbone enable a proper comparison of phenotypic complementation. The mutant versions of MUTE constructs were generated in the same way after site-directed mutagenesis using Q5 Site-directed mutagenesis kit (NEB) and subjected to the Three-Way Gateway reaction after sequence confirmation. The constructs were then transformed into the Agrobacterium strain GV3101 and floral dipped into mute-2/+ plants. To construct CaMV35S::H2B-mScarlet-I3/pPZP211 (DKv1400), 35S promoter (35Sp::RFP-CenH3 with DKp665-DKp1254)[57], H2B-(SGGGG)2 linker (from DKv1200[58] with DKp2412-DKp2599), mScarlet-I3 (from codon optimized synthetic DNA for A. thaliana), Nos terminator (from DKv1200 with DKp1251-DKp2598) were amplified using KOD one polymerase (TOYOBO). The PCR products were assembled into BamHI/EcoRI-digested pPZP211[59] using the NEBuilder HiFi DNA Assembly (NEB). For detailed lists of oligo DNA and plasmid information, see Tables S5 and S6, respectively.
# For quantitative analysis of the abaxial leaf epidermis, confocal images were taken on the days after germination as indicated in the Figure legends. Preparation of images was done as described previously[32],[70]. For counting epidermal cell types, stomatal density, stomatal precursor cells (meristemoids), total stomata-lineage cells (stomata and meristemoids) were calculated by counting cell types in an area of 0.4 mm^2 (0.63 mm × 0.63 mm) and plotted as per mm^2. A series of Z-stack confocal images was obtained to obtain images covering the epidermis and capturing GFP/YFP signal from the reporter lines. The area and the number of epidermal cells were quantified by using FIJI-ImageJ. Statistical analyses were performed using R ver. 4.0.2. […]
# DB+SCRM (control yeast) = target: T1, DB+SCRM (control yeast) (Arabidopsis thaliana, UniProt Q9LSE2); test: Y2H quantitative α-galactosidase assay, control pair DB+SCRM; assay type: cell-based; conditions: individual replicates, listed as AYSJ929
# T1 construct: expressed in transfected cells; host or cells: yeast strain AH109
# T1 sequence (Q9LSE2 1-494): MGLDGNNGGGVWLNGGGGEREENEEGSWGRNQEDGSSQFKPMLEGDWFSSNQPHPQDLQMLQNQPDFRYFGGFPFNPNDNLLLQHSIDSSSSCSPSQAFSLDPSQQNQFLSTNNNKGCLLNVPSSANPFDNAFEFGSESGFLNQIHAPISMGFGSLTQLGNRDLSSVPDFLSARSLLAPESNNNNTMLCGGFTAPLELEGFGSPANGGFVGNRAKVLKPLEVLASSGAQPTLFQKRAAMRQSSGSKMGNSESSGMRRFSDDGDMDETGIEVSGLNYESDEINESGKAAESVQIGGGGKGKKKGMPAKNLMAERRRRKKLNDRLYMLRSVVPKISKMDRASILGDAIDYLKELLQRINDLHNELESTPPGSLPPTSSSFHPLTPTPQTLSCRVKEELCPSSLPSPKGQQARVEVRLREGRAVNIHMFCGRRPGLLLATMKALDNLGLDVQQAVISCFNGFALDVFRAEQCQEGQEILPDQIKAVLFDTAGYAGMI
# Excerpt: Supplement 41467_2024_53214_MOESM7_ESM.xlsx, sheet "Fig.6b" | column: a-galactosidase [milliunits /(ml x cell)]
# [2] = line AH11 Ln5, 20 μM Stomidazolone, cotyledon abaxial epidermis, individual seedlings
# [3] = line HS133 Ln26, 20 μM Stomidazolone, cotyledon abaxial epidermis, individual seedlings
# [4] = line HS134 Ln26, 20 μM Stomidazolone, cotyledon abaxial epidermis, individual seedlings
# [5] = transgenic line AH11 Ln25, cotyledon abaxial epidermis, 20 μM Stomidazolone, individual seedlings
# [6] = transgenic line HS133 Ln19, cotyledon abaxial epidermis, 20 μM Stomidazolone, individual seedlings
# [7] = transgenic line HS134 Ln23, cotyledon abaxial epidermis, 20 μM Stomidazolone, individual seedlings
smiles,measurement,setting,value
O=C1C(c2ccccc2)=NC(NS(=O)(=O)c2ccccc2)(c2ccccc2)N1S(=O)(=O)c1ccccc1 (centres unmarked) [Stomidazolone],effect on numbers of stomata and meristemoids (in words),"[1]; 20 μM, eight days, MUTEpro::MUTEE162A_E163A-GFP and MUTEpro::MUTER133A_R134A-GFP in mute-2",did not significantly affect the numbers of stomata and meristemoids
same,effect on number of stomata (in words),"[1]; 20 μM, eight days, control MUTEpro::MUTE-GFP mute-2",significantly reduced the number of stomata
same,Meristemoid density,[1]; [2],0 per mm2 and 2 per mm2 and 5 per mm2
same,Stomata Total density,[1]; [2],165 per mm2 and 160 per mm2 and 190 per mm2 and 197 per mm2 and 136 per mm2 and 163 per mm2 and 180 per mm2
same,total (stomata and meristemoids) density,[1]; [2],165 per mm2 and 163 per mm2 and 192 per mm2 and 199 per mm2 and 141 per mm2 and 182 per mm2
same,Meristemoid density,[1]; [3],2 per mm2 and 0 per mm2 and 5 per mm2
same,Stomata Total density,[1]; [3],279 per mm2 and 170 per mm2 and 177 per mm2 and 226 per mm2 and 425 per mm2 and 199 per mm2
same,total (stomata and meristemoids) density,[1]; [3],282 per mm2 and 170 per mm2 and 180 per mm2 and 177 per mm2 and 226 per mm2 and 425 per mm2 and 182 per mm2 and 202 per mm2
same,Meristemoid density,[1]; [4],0 per mm2 and 7 per mm2 and 29 per mm2 and 5 per mm2
same,Stomata density,[1]; [4],279 per mm2 and 309 per mm2 and 190 per mm2 and 194 per mm2 and 272 per mm2 and 294 per mm2 and 367 per mm2 and 304 per mm2
same,total (stomata and meristemoids) density,[1]; [4],279 per mm2 and 316 per mm2 and 197 per mm2 and 224 per mm2 and 272 per mm2 and 294 per mm2 and 367 per mm2 and 309 per mm2
same,Meristemoid density,[1]; [5],0 per mm2 and 5 per mm2 and 2 per mm2
same,stomatal density,[1]; [5],197 per mm2 and 216 per mm2 and 250 per mm2 and 287 per mm2 and 219 per mm2 and 182 per mm2 and 226 per mm2
same,total (stomata and meristemoids) density,[1]; [5],197 per mm2 and 221 per mm2 and 253 per mm2 and 287 per mm2 and 219 per mm2 and 216 per mm2 and 182 per mm2 and 226 per mm2
same,Meristemoid density,[1]; [6],0 per mm2 and 5 per mm2 and 2 per mm2 and 17 per mm2
same,stomatal density,[1]; [6],267 per mm2 and 442 per mm2 and 316 per mm2 and 250 per mm2 and 209 per mm2 and 224 per mm2 and 437 per mm2 and 294 per mm2
same,total (stomata and meristemoids) density,[1]; [6],267 per mm2 and 442 per mm2 and 321 per mm2 and 255 per mm2 and 209 per mm2 and 228 per mm2 and 440 per mm2 and 311 per mm2
same,Meristemoid density,[1]; [7],0 per mm2 and 5 per mm2
same,stomatal density (Stomata Total),[1]; [7],345 per mm2 and 221 per mm2 and 180 per mm2 and 267 per mm2 and 479 per mm2 and 316 per mm2 and 207 per mm2 and 199 per mm2
same,total (stomata and meristemoids) density,[1]; [7],345 per mm2 and 221 per mm2 and 185 per mm2 and 267 per mm2 and 479 per mm2 and 316 per mm2 and 211 per mm2 and 199 per mm2
same,a-galactosidase,DB+SCRM (control yeast); 10 µM,0.72 milliunits /(ml x cell) and 0.19 milliunits /(ml x cell) and 0.32 milliunits /(ml x cell)
same,a-galactosidase,DB+SCRM (control yeast); 50 µM,0.16 milliunits /(ml x cell) and 0.47 milliunits /(ml x cell) and 0.51 milliunits /(ml x cell)
same,a-galactosidase,DB+SCRM (control yeast); 100 µM,0.46 milliunits /(ml x cell) and 0.80 milliunits /(ml x cell) and 0.52 milliunits /(ml x cell)
